We go through four compounds from patent US5239110A, “Phenylcyclohexanol derivatives as agents for treating CNS disorders” (Sterling Winthrop, Inc., priority 1992, dated 1993).

The assay concerns sigma receptors. Kind of assay: sigma receptor binding, [3H]di(2-tolyl)guanidine (DTG) assay. Set-up: species or system guinea pig (male Hartley), brain tissue. The note with it: [3H]DTG approx. 4 nM, 25° C., 90 min, guinea pig brain membranes; for Ki: pH 7.4. Here is the method:
Brain tissue was prepared from male Hartley guinea pigs (Hazelton Labs, Denver, PA) which were anesthetized with CO2 and sacrificed by decapitation. All animal care and use procedures were in accord with the "Guide for the Care and Use of Laboratory Animals" (NIH Publ. No. 86-23, 20 1985). Homogenization was performed in 10 volumes (wt/vol) of 0.32 M sucrose with a Brinkmann Polytron at setting 5, 30 sec. The homogenate was centrifuged at 900×g for 10 min at 4° C., and the supernatant was collected and centrifuged at 22,000×g for 20 min at 4° C. The pellet was resuspended in 10 volumes of Tris-HCl buffer (50 mM, pH 7.4), incubated at 37° C. for 30 min and centrifuged at 22,000×g for 20 min at 4° C. Following this, the pellet was resuspended in Tris buffer and frozen in 5-10 mL aliquots corresponding to a tissue concentration of 100 mg/mL at -70° C. Binding characteristics of the membranes were stable for at least one month when stored at -70° C.
On the day of the assay, membrane aliquots were thawed, resuspended in fresh Tris buffer and stored on ice until use. Each assay tube contained 100 μL of [3H](+)pentazocine at a final concentration of approximately 0.5 nM, [3H]di(2-tolyl)guanidine (DTG) at a final concentration of approximately 4 nM, 100 μL of various concentrations of the compounds of interest, 500 μL of the tissue suspension and 300 μL of buffer to a final assay volume of 1 mL and a final tissue concentration of approximately 8 mg/tube, corresponding to approximately 0.15 mg protein/tube. Nonspecific binding was defined by addition of a final concentration of 1 μM haloperidol to blank tubes for [^3 H]+pentazocine assay or by addition of a final concentration of 10 μM haloperidol to blank tubes for [^3 H]DTG assay. All tubes were incubated at 37° C. for 150 minutes ([^3 H]+pentazocine) or at 25° C. for 90 min ([3H]DTG) before termination of the reaction by filtration over Whatman GF/B glass fiber filters that were presoaked in a solution of 0.5% polyethyleneimine for at least 1 hr prior to use. Filters were washed with three 4 mL volumes of cold Tris-HCl buffer.
Following addition of scintillation cocktail, samples were allowed to equilibrate for at least 4 hr. The amount of bound radioactivity was determined by liquid scintillation spectrometry using a Beckman LS 5000 TA liquid scintillation counter with an efficiency for tritium of approximately 60%.
Data obtained on the compounds in the di(2-tolyl)guanidine (DTG) and d-pentazocine (+pent) assays, expressed as a Ki value in nM or % inhibition at 10 nM, are as follows: […]

In general, Ki refers to a dissociation constant, usually derived from enzyme kinetics or from competition with a known ligand. A low value points to higher affinity.

For the compound `CN(C)C1CCC(O)(c2ccccc2)CC1` (stereo not shown) [Example 1, 4-(Dimethylamino)-1-phenylcyclohexanol], the “DTG % inhib (10 nM)” value (at 10 nM) is on record as 61%. For the compound `CCC(=O)O[C@]1(c2ccccc2)CC[C@@H](N(C)C)CC1` [Example 4, trans-4(dimethylamino)-1-phenylcyclohexyl propionate], the affinity, expressed as Ki, was 4.08 µM.

In the case of `CCC(=O)O[C@]1(c2ccccc2)CC[C@H](N(C)C)CC1` [Example 3, cis-4-(dimethylamino)-1-phenylcyclohexyl propionate], affinity was put at a Ki of 0.288 µM.

For `CC(=O)O[C@]1(c2ccccc2)CC[C@H](N(C)C)CC1` [Example 2, cis-4-(dimethylamino)-1-phenylcyclohexylacetate], the affinity corresponds to a Ki of 5 µM.
